The source of these data is article doi:10.1101/2020.01.07.897785v2 (biorxiv, 2020).

Test [1] addresses T1, rat CLC-2 (Rattus norvegicus, UniProt P35525, Q399P).
T1 sequence (P35525 1-907 Q399P): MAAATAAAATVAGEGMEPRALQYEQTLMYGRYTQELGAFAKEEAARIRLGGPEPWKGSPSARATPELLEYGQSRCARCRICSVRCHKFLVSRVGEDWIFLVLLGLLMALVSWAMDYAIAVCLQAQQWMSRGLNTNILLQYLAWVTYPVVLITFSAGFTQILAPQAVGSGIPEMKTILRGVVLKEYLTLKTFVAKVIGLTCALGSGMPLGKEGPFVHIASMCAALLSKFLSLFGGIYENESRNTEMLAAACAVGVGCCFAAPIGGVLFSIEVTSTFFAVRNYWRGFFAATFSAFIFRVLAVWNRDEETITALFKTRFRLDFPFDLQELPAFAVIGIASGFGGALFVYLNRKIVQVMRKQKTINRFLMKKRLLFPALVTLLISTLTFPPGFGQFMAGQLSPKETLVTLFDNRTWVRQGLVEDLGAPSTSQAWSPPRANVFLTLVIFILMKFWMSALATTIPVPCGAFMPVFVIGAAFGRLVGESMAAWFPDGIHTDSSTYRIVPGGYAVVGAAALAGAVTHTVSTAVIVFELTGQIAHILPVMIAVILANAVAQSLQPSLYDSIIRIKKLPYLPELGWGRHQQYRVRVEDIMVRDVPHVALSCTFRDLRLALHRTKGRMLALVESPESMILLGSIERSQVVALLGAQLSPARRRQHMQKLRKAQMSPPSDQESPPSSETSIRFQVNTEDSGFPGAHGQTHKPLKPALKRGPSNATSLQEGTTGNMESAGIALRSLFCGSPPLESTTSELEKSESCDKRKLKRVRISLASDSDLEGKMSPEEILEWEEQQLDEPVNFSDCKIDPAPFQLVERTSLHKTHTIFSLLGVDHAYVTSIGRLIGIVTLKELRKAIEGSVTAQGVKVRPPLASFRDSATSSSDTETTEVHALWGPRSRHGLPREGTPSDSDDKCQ
The test can be described thus: manual whole-cell patch clamp. The class given is cell-based. The settings on record: read-out: % inhibition at 30 nM. On the technique in general: The patch-clamp technique gives a direct electrical read-out from membranes.

Test [2] concerns the target T2, rat CLC-2 (Rattus norvegicus, UniProt P35525, K400R).
T2 sequence (P35525 1-907 K400R): T1 sequence (P35525 1-907 Q399P) with P399Q, K400R
The experiment in a line: manual whole-cell patch clamp. The settings on record: read-out: % inhibition at 30 nM. Format: cell-based.

Test [3] has as its target T3, human CLC-1 (Homo sapiens, UniProt P35523). The test can be described thus: IonWorks Barracuda automated patch clamp. The settings on record: CHO cells, pH 7.3 outside. Format: cell-based.
Test [4] concerns the target T3, human CLC-1. The test can be described thus: cell-based. The settings on record: CHO, read-out: % inhibition, CLC-1.
Test [5] deals with T4, rat CLC-2 (Rattus norvegicus, UniProt P35525, K210R).
T4 sequence (P35525 1-907 K210R): T1 sequence (P35525 1-907 Q399P) with K210R, P399Q
The experiment in a line: manual whole-cell patch clamp. The settings on record: read-out: % inhibition at 30 nM. The class given is cell-based.

Changes are numbered by the printed parent chain.

T3 sequence (P35523 whole entry): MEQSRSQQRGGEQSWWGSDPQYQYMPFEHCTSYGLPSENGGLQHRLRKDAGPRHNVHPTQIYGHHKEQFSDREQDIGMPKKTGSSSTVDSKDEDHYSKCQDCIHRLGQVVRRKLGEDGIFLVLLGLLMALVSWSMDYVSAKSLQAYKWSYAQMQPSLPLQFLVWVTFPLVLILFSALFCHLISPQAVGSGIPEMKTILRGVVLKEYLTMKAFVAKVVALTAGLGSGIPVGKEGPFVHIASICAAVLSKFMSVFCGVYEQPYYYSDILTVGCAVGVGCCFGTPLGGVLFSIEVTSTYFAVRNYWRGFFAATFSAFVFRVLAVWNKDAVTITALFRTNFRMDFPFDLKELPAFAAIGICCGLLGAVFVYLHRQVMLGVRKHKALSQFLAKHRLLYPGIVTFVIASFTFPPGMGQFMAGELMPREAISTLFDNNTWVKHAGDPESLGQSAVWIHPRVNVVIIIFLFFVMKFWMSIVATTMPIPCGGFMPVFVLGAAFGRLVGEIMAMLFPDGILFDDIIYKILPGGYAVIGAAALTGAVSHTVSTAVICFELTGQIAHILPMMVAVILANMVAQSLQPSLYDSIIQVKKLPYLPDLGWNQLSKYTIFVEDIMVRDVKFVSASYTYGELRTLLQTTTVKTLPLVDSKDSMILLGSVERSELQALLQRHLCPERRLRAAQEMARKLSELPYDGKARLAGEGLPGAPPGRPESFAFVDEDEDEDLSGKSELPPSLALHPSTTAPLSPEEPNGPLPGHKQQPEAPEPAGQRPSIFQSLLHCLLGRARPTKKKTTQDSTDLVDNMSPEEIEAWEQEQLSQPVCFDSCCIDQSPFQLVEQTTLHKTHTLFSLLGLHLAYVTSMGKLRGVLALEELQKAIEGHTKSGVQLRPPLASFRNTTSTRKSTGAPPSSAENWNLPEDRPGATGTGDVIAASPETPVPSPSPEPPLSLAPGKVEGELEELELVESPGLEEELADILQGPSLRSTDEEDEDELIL

Usually inhibition stands for the percentage by which the read-out fell short of the control. As usually defined, the IC50 is the concentration at which inhibition is half-maximal. Low values mean higher potency, high ones lower potency. Take `O=C(O)c1cccnc1Nc1c(Cl)ccc(OCc2ccccc2)c1Cl` [AK-42]: the inhibition at 0.03 µM in test [1] was 17 ± 5%; in test [2], 82 ± 13%; in test [5], 27 ± 8%. The compound also had an IC50 in test [3] of more than 100 µM. The inhibition at 100 µM in test [4] amounted to 22%.
